For experiment [1], the system named is C. albicans. Put plainly: In vitro activity by the agar dilution method, C. albicans. The class given is cell-based. Conditions: Candida albicans; Kimmig's agar, 25° C., 48 h; read-out: MIC (minimal inhibitory concentration), C. albicans. The method, then: (§1) In vitro activity was evaluated against C. albicans, C. krusei, and Aspergillus fumigatus by the agar dilution method. Test strains were either clinical isolates or were obtained from ATCC. Stock solutions containing 800 μg/mL were prepared by solving the test products in 50% ethanol. The culture medium used was Kimmig's agar (K. A., E. Merck) supplemented with 0.5% glycerol. Plates containing serial dilutions (80 to 0.025 gg/imL) of the test products were inoculated with 10 μL of the fungal inocula, containing 10^5 colony forming units (cfu)/mL. Plates were incubated at 25° C. during 48 h for Candida sp. and during 5 days for Apergillus fumigatus. Following incubation MICs (minimal inhibitory concentrations) were determined.

Experiment [2] concerns Aspergillus fumigatus. Put plainly: In vitro activity by the agar dilution method, Aspergillus fumigatus. The class given is cell-based. Conditions: 120 h, Kimmig's agar, 25° C., 5 days, read-out: MIC (minimal inhibitory concentration), Asp. fumigatus. How it is done: as §1
In general terms: Agar dilution tests growth on a series of plates holding different concentrations.

Experiment [3] relates to C. krusei. Put plainly: In vitro activity by the agar dilution method, C. krusei. Format: cell-based. Conditions: Pichia kudriavzevii; Kimmig's agar, 25° C., 48 h; read-out: MIC (minimal inhibitory concentration), C. krusei. How it is done: as §1
In experiment [4] the test system is Candida albicans. Put plainly: In Vivo Activity (Systemic Candidiasis). Conditions: po, 576 h, orally at 1 mg/kg at 1, 4 and 24 h after infection, male mice, i.v. infection, read-out: protection on the day where all the animals in the control group had died. How it is done:
Groups of 10 male mice were inoculated i.v. with 0.2 mL of a suspension containing (2-8)×10^7 cfu/mL of Candida albicans. Compounds were administered orally at 1 mg/kg (or at 10 mg/kg for those compounds marked with an asterisk) at times 1, 4 and 24 h after infection.

Converted amounts (≈) assume the structure as drawn.

On to `Cc1ccc2ncn([C@H](C)[C@](O)(Cn3cncn3)c3ccc(F)cc3F)c(=O)c2c1` [Example 24, (1R,2R)-3-[2-(2,4-Difluorophenyl)-2-hydroxy-1-methyl-3-(1H-1,2,4-triazol-1-yl)propyl]-6-methylquinazolin-4(3H)-one], for which the MIC in experiment [1] was no more than 0.03 µg/mL; in experiment [2], 40 µg/mL (≈ 97.2 µM); in experiment [3], 2.5 µg/mL (≈ 6.08 µM).
Taken in the same sequence, the figures for `C[C@@H](n1cnc2cc(NCc3ccccc3)ccc2c1=O)[C@](O)(Cn1cncn1)c1ccc(F)cc1F` [Example 71, (1R,2R)-7-Benzylamino-3-[2-(2,4-difluorophenyl)-2-hydroxy-1-methyl-3-(1H-1,2,4-triazol-1-yl)propyl]quinazolin-4(3H)-one] were no more than 0.03 µg/mL, 5 µg/mL (≈ 9.95 µM) and 2.5 µg/mL (≈ 4.97 µM).
In the case of `C[C@@H](n1cnc2cc(F)ccc2c1=O)[C@](O)(Cn1cncn1)c1ccc(F)cc1F` [Example 12, (1R,2R)-3-[2-(2,4-Difluorophenyl)-2-hydroxy-1-methyl-3-(1H-1,2,4-triazol-1-yl)propyl]-7-fluoroquinazolin-4(3H)-one], the values for the MIC in experiment [1], in experiment [2] and in experiment [3] were no more than 0.03 µg/mL, 1.25 µg/mL (≈ 3.01 µM) and 1.25 µg/mL (≈ 3.01 µM), respectively.
As to `C[C@@H](n1cnc2cc(S(=O)(=O)c3ccccc3)ccc2c1=O)[C@](O)(Cn1cncn1)c1ccc(F)cc1F` [Example 61, (1R,2R)-3-[2-(2,4-Difluorophenyl)-2-hydroxy-1-methyl-3-(1H-1,2,4-triazol-1-yl)propyl]-7-phenylsulfonylquinazolin-4(3H)-one], the MIC in experiment [1] came to 0.31 µg/mL (≈ 0.577 µM); in experiment [2], 5 µg/mL (≈ 9.3 µM); in experiment [3], 5 µg/mL (≈ 9.3 µM).
Take `C[C@@H](n1cnc2cc3ccccc3cc2c1=O)[C@](O)(Cn1cncn1)c1ccc(F)cc1F` [Example 38, (1R,2R)-3-[2-(2,4-Difluorophenyl)-2-hydroxy-1-methyl-3-(1H-1,2,4-triazol-1-yl)propyl]benzo[g]quinazolin4(3H)-one]: the MIC in experiment [1] is no more than 0.03 µg/mL; in experiment [2], 20 µg/mL (≈ 44.7 µM); in experiment [3], 5 µg/mL (≈ 11.2 µM).
In the same order, the values of `C[C@@H](n1cnc2ccccc2c1=O)[C@](O)(Cn1cncn1)c1ccc(F)cc1F` [Example 5, (1R,2R)-3-[2-(2,4-Difluorophenyl)-2-hydroxy-1-methyl-3-(1H-1,2,4-triazol-1-yl)propyl]quinazolin-4(3H)-one] are 0.07 µg/mL (≈ 0.176 µM), 10 µg/mL (≈ 25.2 µM) and 5 µg/mL (≈ 12.6 µM).
Turning to `C[C@@H](n1cnc2cc(N(C)C)c(F)cc2c1=O)[C@](O)(Cn1cncn1)c1ccc(F)cc1F` [Example 4, (1R,2R)-3-[2-(2,4-Difluorophenyl)-2-hydroxy-1-methyl-3-(1H-1,2,4-triazol-1-yl)propyl]-7-dimethylamino-6-fluoroquinazolin-4(3H)-one], the MIC was found to be 0.15 µg/mL (≈ 0.327 µM) in experiment [1], 10 µg/mL (≈ 21.8 µM) in experiment [2] and 0.63 µg/mL (≈ 1.37 µM) in experiment [3].
With `C[C@@H](n1cnc2cc(-c3ccc(C(F)(F)F)cc3)sc2c1=O)[C@](O)(Cn1cncn1)c1ccc(F)cc1F` [Example 33, (1R,2R)-3-[2-(2,4-Difluorophenyl)-2-hydroxy-1-methyl-3-(1H-1,2,4-triazol-1-yl)propyl]-6-[(4-trifluoromethyl)phenyl]thieno[3,2-d]pyrimidin-4(3H)-one], the responders at 1 mg/kg in experiment [4] came to 100%.
Same read-out and setting: the same measure for `C[C@@H](n1cnc2c(Cl)cc(Cl)cc2c1=O)[C@](O)(Cn1cncn1)c1ccc(F)cc1F` [Example 9, (1R,2R)-6,8Dichloro-3-[2-(2,4-difluorophenyl)-2-hydroxy-1-methyl-3-(1H-1,2,4-triazol-1-yl)propyl]quinazolin4(3H)-one]: 100%; for `C[C@@H](n1cnc2cc(-c3ccc(OCC(F)(F)C(F)F)cc3)sc2c1=O)[C@](O)(Cn1cncn1)c1ccc(F)cc1F` [Example 34, (1R,2R)-3-[2-(2,4-Difluorophenyl)-2-hydroxy-1-methyl-3-(1H-1,2,4-triazol-1-yl)propyl]-6-[4-(2,2,3,3-tetrafluoropropoxy)phenyl]thieno[3,2-d]pyrimidin-4(3H)-one]: 100%.
Still for that read-out and setting: the same measure for `C[C@@H](n1cnc2ccc(Br)cc2c1=O)[C@](O)(Cn1cncn1)c1ccc(F)cc1F` [Example 10, (1R,2R)-6-Bromo-3-[2-(2,4-difluorophenyl)-2-hydroxy-1-methyl-3-(1H-1,2,4-triazol-1-yl)propyl]quinazolin4(3H)-one]: 100%.
Still for that read-out and setting: the same measure for `C[C@@H](n1cnc2cc(-c3ccc(Cl)cc3)sc2c1=O)[C@](O)(Cn1cncn1)c1ccc(Cl)cc1Cl` [Example 54, (1R,2R)-6-(4-Chlorophenyl)-3-[2-(2,4-dichlorophenyl)-2-hydroxy-1-methyl-3-(1H-1,2,4-triazol-1-yl)propyl]thieno[3,2-d]pyrimidin-4(3H)-one]: 100%; for `C[C@@H](n1cnc2cc(-c3ccc(C(=N)NO)cc3)sc2c1=O)[C@](O)(Cn1cncn1)c1ccc(F)cc1F` [Example 62, (1R,2R)-3-[2-(2,4-Difluorophenyl)-2-hydroxy-1-methyl-3-(1H-1,2,4-triazol-1-yl)propyl]-6-[4-[(hydroxyamino)iminomethyl]phenyl]thieno[3,2-d]pyrimidin-4(3H)-one]: 100%; for `C[C@@H](n1cnc2cc(S(C)(=O)=O)ccc2c1=O)[C@](O)(Cn1cncn1)c1ccc(F)cc1F` [Example 51, (1R,2R)-3-[2-(2,4-Difluorophenyl)-2-hydroxy-1-methyl-3-(1H-1,2,4-triazol-1-yl)propyl]-7-(methylsulfonyl)quinazolin-4(3H)-one]: 100%.
As to `C[C@@H](n1cnc2cc(-n3cncn3)ccc2c1=O)[C@](O)(Cn1cncn1)c1ccc(F)cc1F` [Example 48, (1R,2)-3-[2-(2,4-Difluorophenyl)-2-hydroxy-1-methyl-3-(1H-1,2,4-triazol-1-yl)propyl]-7-(1H-1,2,4-triazol-1-yl)quinazolin-4(3H)-one], in experiment [4], the responders at 1 mg/kg was found to be 100%.
Consider `C[C@@H](n1cnc2cc(-c3ccc(C(=N)NC#N)cc3)sc2c1=O)[C@](O)(Cn1cncn1)c1ccc(F)cc1F` [Example 65, (1R,2R)-6-[4-[Cyanoamino(imino)methyl]phenyl]-3-[2-(2,4-difluorophenyl)-2-hydroxy-1-methyl-3-(1H-1,2,4-triazol-1-yl)propyl]thieno[3,2-d]pyrimidin-4(3H)-one], for which the responders at 1 mg/kg in experiment [4] worked out at 100%.
Still for that read-out and setting: the same measure for `C[C@@H](n1cnc2cc(Cl)ccc2c1=O)[C@](O)(Cn1cncn1)c1ccc(Cl)cc1Cl` [Example 52, (1R,2R)-7-Chloro-3-[2-(2,4-dichlorophenyl)-2-hydroxy-1-methyl-3-(1H-1,2,4-triazol-1-yl)propyl]quinazolin-4(3H)-one]: 100%; for `C[C@@H](n1cnc2cc(OCC(F)F)ccc2c1=O)[C@](O)(Cn1cncn1)c1ccc(F)cc1F` [Example 19, (1R,2R)-7-(2,2-Difluoroethoxy)-3-[2-(2,4-difluorophenyl)-2-hydroxy-1-methyl-3-(1H-1,2,4-triazol-1-yl)propyl]quinazolin-4(3H)-one]: 100%; for `C[C@@H](n1cnc2cc(-c3ccc(C#N)cc3)sc2c1=O)[C@](O)(Cn1cncn1)c1ccc(Cl)cc1Cl` [Example 55, (1R,2R)-4-[3-[2-(2,4-Dichlorophenyl)-2-hydroxy-1-methyl-3-(1H-1,2,4-triazol-1-yl)propyl]-4-oxo-3,4-dihydrothieno[3,2-d]pyrimidin-6-yl]benzonitrile]: 100%.
In the case of `CC(=O)ONC(=N)c1ccc(-c2cc3ncn([C@H](C)[C@](O)(Cn4cncn4)c4ccc(F)cc4F)c(=O)c3s2)cc1` [Example 68], the values for the MIC in experiment [1], in experiment [2] and in experiment [3] were 0.31 µg/mL (≈ 0.535 µM), 20 µg/mL (≈ 34.5 µM) and 10 µg/mL (≈ 17.3 µM), respectively.
Consider `C[C@@H](n1cnc2cc(Sc3ccccc3)ccc2c1=O)[C@](O)(Cn1cncn1)c1ccc(F)cc1F` [Example 60, (1R,2R)-3-[2-(2,4-Difluorophenyl)-2-hydroxy-1-methyl-3-(1H-1,2,4-triazol-1-yl)propyl]-7-(phenylthio)quinazolin-4(3H)-one], for which the MIC in experiment [1] is no more than 0.03 µg/mL; in experiment [2], 0.63 µg/mL (≈ 1.25 µM); in experiment [3], 0.31 µg/mL (≈ 0.613 µM).
Turning to `C[C@@H](n1cnc2cc(-c3ccc(C4=NCCO4)cc3)sc2c1=O)[C@](O)(Cn1cncn1)c1ccc(F)cc1F` [Example 69, (1R,2R)-3-[2-(2,4-Difluorophenyl)-2-hydroxy-1-methyl-3-(1-H-1,2,4-triazol-1-yl)propyl]-6-[4-(4,5-dihydrooxazol-2-yl)phenyl]thieno[3,2-d]pyrimidin-4(3H)-one], the responders at 1 mg/kg in experiment [4] came to 100%.
With `C[C@@H](n1cnc2cc(C(F)(F)F)ccc2c1=O)[C@](O)(Cn1cncn1)c1ccc(Cl)cc1Cl` [Example 53, (1R,2R)-3-[2-(2,4-Dichlorophenyl)-2-hydroxy-1-methyl-3-(1H-1,2,4-triazol-1-yl)propyl]-7-trifluoromethylquinazolin-4(3H)-one], the responders at 1 mg/kg in experiment [4] came out at 100%.

For the origin of these results see patent US5807854A, “Pyrimidone derivatives with antifungal activity” (J. Uriah & Cia. S.A., priority 1995, dated 1998).
